Tests used:
BK polyomavirus = experiment: Antimicrobial activity against BK polyomavirus ATCC VR837 infected in human WI38 cells assessed as reduction in viral titer after 7 days by PCR analysis; assay type: functional, organism-based; details: Betapolyomavirus hominis, ATCC VR837, WI-38, 168 h
[1] = Selectivity index, ratio of CC50 for human WI38 cells to EC50 for BK polyomavirus ATCC VR837; assay type: toxicity, cell-based, WI-38; details: read-out: Selectivity Index
[2] = Cytotoxicity against human WI38 cells by neutral red assay; assay type: cell-based, WI-38

SMILES	EC50 (BK polyomavirus)	selectivity ratio [1]	CC50 [2]
CCCCCCCCCCCCCCCCOCCCOP(=O)(O)CO[C@H](CO)Cn1cnc2c(N)ncnc21	0.02 µM	58.5	0.8 µM
Cc1cn([C@H]2C[C@H](N=[N+]=[N-])[C@@H](CO)O2)c(=O)[nH]c1=O [ZIDOVUDINE]	> 100 µM	1	> 100 µM
Nc1nc(O)c2ncn(/C=C3/CC3CO)c2n1 (stereo unspecified) [SYNGUANOL]	> 100 µM	1	> 100 µM
CCCCCCCC/C=C\CCCCCCCC(=O)Nc1ncnc2c1ncn2CCOCP(=O)(O)O	1 µM	58.9	165 µM
Nc1nc(=O)c2ncn(COCCOP3(=O)OCc4ccccc4O3)c2[nH]1 (stereo unspecified)	> 100 µM	1	100 µM
Nc1ncnc2c1ncn2/C=C1/CC1(CO)CO	40.8 µM	11.9	312 µM
CCCCCCCC/C=C\CCCCCCCCOC(=O)Nc1ncnc2c1ncn2CCOCP(=O)(O)O	2.3 µM	233	529 µM
CCCCCCCCCCCCCCCCCCOCCOP(=O)(O)CO[C@H](CO)Cn1cnc2c(N)ncnc21	0.03 µM	11.7	0.5 µM
Nc1ncnc2c1ncn2CCOCP(=O)(O)O [ADEFOVIR]	95.8 µM	1.3	125 µM
Cc1cccc2c1OP(=O)(OC[C@H]1O[C@@H](n3cc(/C=C/Br)c(=O)[nH]c3=O)CC1O)OC2 (single isomer, unassigned)	41.9 µM	2.3	98.3 µM
Nc1ccn([C@@H]2CS[C@H](CO)O2)c(=O)n1 [LAMIVUDINE]	> 100 µM	1	> 100 µM
CC(C)OC(=O)OCOP(=O)(CO[C@H](C)Cn1cnc2c(N)ncnc21)OCOC(=O)OC(C)C [TENOFOVIR DISOPROXIL]	> 50 µM	1	> 50 µM
O=c1[nH]cnc2c1ncn2[C@H]1CC[C@@H](CO)O1 [DIDANOSINE]	> 100 µM	1	> 100 µM
Cc1cn([C@H]2C=C[C@@H](CO)O2)c(=O)[nH]c1=O [STAVUDINE]	> 100 µM	1	> 100 µM
CC(C)(C)C(=O)OCOP(=O)(COCCn1cnc2c(N)ncnc21)OCOC(=O)C(C)(C)C [ADEFOVIR DIPIVOXIL]	0.7 µM	5.7	3.1 µM
CC(=O)OCC(CCn1cnc2cnc(N)nc21)COC(C)=O [FAMCICLOVIR]	> 0.78 µM	1	> 0.78 µM
Nc1nc2c(ncn2/C=C2/CC2(CO)CO)c(=O)[nH]1 [FILOCICLOVIR]	> 100 µM	1	> 100 µM

From ChEMBL document CHEMBL1255320, “Anti-BK virus activity of nucleoside analogs” (Antimicrob Agents Chemother, 2008)
